Data from patent US7253158B2, “Sulfonamides” (Hoffmann-La Roche Inc., priority 2004, dated 2007).

Target: T1, γ-secretase (Homo sapiens, UniProt P49768)
T1 construct: uses a HEK293 membrane fraction as a source of γ-secretase; endogenous in cells; host or cells: HEK293 (microsomal membrane fraction, solubilised in 0.25% CHAPSO)
Experiment: in vitro γ-secretase assay (HEK293 membrane fraction, recombinant APP substrate, Abeta ELISA)
Type: biochemical
Conditions: γ-secretase inhibition
From the text: Description of γ-Secretase Assay
The activity of test compounds can be evaluated in assays which measure the proteolytic cleavage of suitable substrates by γ-secretase activity. These can be cellular assays where e.g., a substrate of the γ-secretase is fused in its cytoplasmic domain to a transcription factor. Cells are transfected with this fusion gene and a reporter gene, e.g., firefly luciferase, which expression is enhanced by the transcription factor. Cleavage of the fused substrate by γ-secretase will lead to expression of the reporter gene which can be monitored in appropriate assays. The γ-secretase activity can also be determined in cell-free in vitro asays where e.g., a cell lysate containing the γ-secretase complex is incubated with a suitable APP-derived substrate which is cleaved to the Abeta peptides. The amount of produced peptides can be determined with specific ELISA assays. Cell lines of neuronal origin secrete Abeta peptides which can be measured with the specific ELISA assay. Treatment with compounds which inhibit γ-secretase leads to a reduction of secreted Abeta thus providing a measure of inhibition.
The in vitro assay of γ-secretase activity uses a HEK293 membrane fraction as a source of γ-secretase and a recombinant APP substrate. Latter consist of the C-terminal 100 amino acids of human APP fused to a 6× Histidin tail for purification which is expressed in E. coli in a regulatable expression vector, e.g. pEt15. This recombinant protein corresponds to the truncated APP fragment which results after […] of the extracellular domain and which constitutes the γ-secretase substrate. […] Hek293 cells are mechanically disrupted and the microsomal fraction is isolated by differential centrifugation.

| Compound | IC50 (table head prints none) [nM] | IC50 [nM] |
| --- | --- | --- |
| COc1ccc(CN(C2CC(C(C)C)CCNC2=O)S(=O)(=O)c2ccc(Cl)cc2)cc1 (stereo not drawn) [Example 111, 4-Chloro-N-(5-isopropyl-2-oxo-azepan-3-yl)-N-(4-methoxy-benzyl)-benzenesulfonamide] | 8 |  |
| O=C(NC1CC1)c1ccc(CN(C2CC(C(F)(F)F)CCNC2=O)S(=O)(=O)c2ccc(Cl)cc2)cc1 (stereo not drawn) [Example 115, 4-{[(4-Chloro-benzenesulfonyl)-(2-oxo-5-trifluoromethyl-azepan-3-yl)-amino]-methyl}-N-cyclopropyl-benzamide] | 30 |  |
| COc1ccc(CN(C2CC(C(C)C)CCNC2=O)S(=O)(=O)c2ccc(Cl)cc2)c(F)c1 (stereo not drawn) [Example 116, 4-Chloro-N-(2-fluoro-4-methoxy-benzyl)-N-(5-isopropyl-2-oxo-azepan-3-yl)-benzenesulfonamide] | 140 |  |
| CC1(C)CCNC(=O)C(N(Cc2ccc(C(=O)O)cc2)S(=O)(=O)c2ccc(Cl)cc2)C1 (stereo not drawn) [Example 139, 4-{[(4-Chloro-benzenesulfonyl)-(5,5-dimethyl-2-oxo-azepan-3-yl)-amino]-methyl}-benzoic acid] | 70 |  |
| COc1ccc(CN([C@@H]2CCCCNC2=O)S(=O)(=O)c2ccc(C(F)(F)F)cc2)c(F)c1F [Example 166, N-(2,3-Difluoro-4-methoxy-benzyl)-N-((R)-2-oxo-azepan-3-yl)-4-trifluoromethyl-benzenesulfonamide] | 230 |  |
| Cc1nnc(-c2ccc(CN(C3CC(C(C)C)CCNC3=O)S(=O)(=O)c3ccc(Cl)cc3)cc2)o1 (stereo not drawn) [Example 180, 4-Chloro-N-(5-isopropyl-2-oxo-azepan-3-yl)-N-[4-(5-methyl-[1,3,4]oxadiazol-2-yl)-benzyl]-benzenesulfonamide] | 140 |  |
| Cc1noc(-c2ccc(CN(C3CC(C(C)C)CCNC3=O)S(=O)(=O)c3ccc(Cl)cc3)cc2)n1 (stereo not drawn) [Example 181, 4-Chloro-N-(5-isopropyl-2-oxo-azepan-3-yl)-N-[4-(3-methyl-[1,2,4]oxadiazol-5-yl)-benzyl]-benzenesulfonamide] | 270 |  |
| CC1(C)CCNC(=O)[C@H](N(Cc2ccc(C(=O)NC3CC3)cc2)S(=O)(=O)c2ccc(Cl)cc2)C1 [Example 183, 4-{[(4-Chloro-benzenesulfonyl)-((R)-5,5-dimethyl-2-oxo-azepan-3-yl)-amino]-methyl}-N-cyclopropyl-benzamide] | 10 |  |
| COC(=O)c1ccc(CN([C@@H]2CC(C)(C)CCNC2=O)S(=O)(=O)c2ccc(Cl)cc2)c(F)c1 [Example 185, 4-{[(4-Chloro-benzenesulfonyl)-((R)-5,5-dimethyl-2-oxo-azepan-3-yl)-amino]-methyl}-3-fluoro-benzoic acid methyl ester] | 10 |  |
| COC(=O)CCc1ccc(CN([C@@H]2CC(C)(C)CCNC2=O)S(=O)(=O)c2ccc(Cl)cc2)cc1 [Example 186, 3-(4-{[(4-Chloro-benzenesulfonyl)-((R)-5,5-dimethyl-2-oxo-azepan-3-yl)-amino]-methyl}-phenyl)-propionic acid methyl ester] | 130 |  |
| CC1(C)CCNC(=O)[C@H](N(Cc2ccc(CCC(=O)O)cc2)S(=O)(=O)c2ccc(Cl)cc2)C1 [Example 187, 3-(4-{[(4-Chloro-benzenesulfonyl)-((R)-5,5-dimethyl-2-oxo-azepan-3-yl)-amino]-methyl}-phenyl)-propionic acid] | 10 |  |
| CC1(C)CCNC(=O)[C@H](N(Cc2ccc(C(=O)O)cc2F)S(=O)(=O)c2ccc(Cl)cc2)C1 [Example 188, 4-{[(4-Chloro-benzenesulfonyl)-((R)-5,5-dimethyl-2-oxo-azepan-3-yl)-amino]-methyl}-3-fluoro-benzoic acid] | 30 |  |
| CN(C)NC(=O)c1ccc(CN([C@@H]2CC(C)(C)CCNC2=O)S(=O)(=O)c2ccc(Cl)cc2)c(F)c1 [Example 189, 4-Chloro-N-[4-(N′,N′-dimethyl-hydrazinocarbonyl)-2-fluoro-benzyl]-N-((R)-5,5-dimethyl-2-oxo-azepan-3-yl)-benzenesulfonamide] | 20 |  |
| CC1(C)CCNC(=O)[C@H](N(Cc2ccc(-c3ccno3)cc2)S(=O)(=O)c2ccc(Cl)cc2)C1 [Example 191, 4-Chloro-N-((R)-5,5-dimethyl-2-oxo-azepan-3-yl)-N-(4-isoxazol-5-yl-benzyl)-benzenesulfonamide] | 60 |  |
| COc1ccc(CN([C@@H]2CC(C)(C)CCNC2=O)S(=O)(=O)c2ccc(Cl)cc2)c(F)c1 [Example 192, 4-Chloro-N-((R)-5,5-dimethyl-2-oxo-azepan-3-yl)-N-(2-fluoro-4-methoxy-benzyl)-benzenesulfonamide] | 40 |  |

Now from value to compound:

| IC50 (table head prints none) [nM] | IC50 [nM] | Compound |
| --- | --- | --- |
| 20 |  | CC1(C)CCNC(=O)[C@H](N(Cc2ccc(CO)cc2F)S(=O)(=O)c2ccc(Cl)cc2)C1 [Example 193, 4-Chloro-N-((R)-5,5-dimethyl-2-oxo-azepan-3-yl)-N-(2-fluoro-4-hydroxymethyl-benzyl)-benzenesulfonamide] |
| 130 |  | O=C(O)CCc1ccc(CN(C2CC(C(F)(F)F)CCNC2=O)S(=O)(=O)c2ccc(Cl)cc2)cc1 (stereo not drawn) [Example 194, 3-(4-{[(4-Chloro-benzenesulfonyl)-(2-oxo-5-trifluoromethyl-azepan-3-yl)-amino]-methyl}-phenyl)-propionic acid] |
| 30 |  | O=C(O)c1ccc(CN(C2CC(C(F)(F)F)CCNC2=O)S(=O)(=O)c2ccc(Cl)cc2)cc1 (stereo not drawn) [Example 195, 4-{[(4-Chloro-benzenesulfonyl)-(2-oxo-5-trifluoromethyl-azepan-3-yl)-amino]-methyl}-benzoic acid] |
| 190 |  | CN(C)NC(=O)c1ccc(CN(C2CC(C(F)(F)F)CCNC2=O)S(=O)(=O)c2ccc(Cl)cc2)cc1 (stereo not drawn) [Example 196, 4-Chloro-N-[4-(N′,N′-dimethyl-hydrazinocarbonyl)-benzyl]-N-(2-oxo-5-trifluoromethyl-azepan-3-yl)-benzenesulfonamide] |
| 20 |  | COC(=O)c1ccc(CN(C2CC(C(F)(F)F)CCNC2=O)S(=O)(=O)c2ccc(Cl)cc2)c(F)c1 (stereo not drawn) [Example 197, 4-{[(4-Chloro-benzenesulfonyl)-(2-oxo-5-trifluoromethyl-azepan-3-yl)-amino]-methyl}-3-fluoro-benzoic acid methyl ester] |
|  | 290 | COc1ccc(CN(C2CC(C(F)(F)F)CCNC2=O)S(=O)(=O)c2ccc(Cl)cc2)c(F)c1 (stereo not drawn) [Example 198, 4-Chloro-N-(2-fluoro-4-methoxy-benzyl)-N-(2-oxo-5-trifluoromethyl-azepan-3-yl)-benzenesulfonamide] |
|  | 20 | O=C(O)c1ccc(CN(C2CC(C(F)(F)F)CCNC2=O)S(=O)(=O)c2ccc(Cl)cc2)c(F)c1 (stereo not drawn) [Example 199, 4-{[(4-Chloro-benzenesulfonyl)-(2-oxo-5-trifluoromethyl-azepan-3-yl)-amino]-methyl}-3-fluoro-benzoic acid] |
|  | 20 | O=C(O)CCc1ccc(CN([C@@H]2CCCCNC2=O)S(=O)(=O)c2ccc(Cl)cc2)cc1 [Example 201, 3-(4-{[(4-Chloro-benzenesulfonyl)-((R)-2-oxo-azepan-3-yl)-amino]-methyl}-phenyl)-propionic acid] |
|  | 220 | O=C1NCCCC[C@H]1N(Cc1ccc(-c2ccno2)cc1)S(=O)(=O)c1ccc(Cl)cc1 [Example 208, 4-Chloro-N-(4-isoxazol-5-yl-benzyl)-N-((R)-2-oxo-azepan-3-yl)-benzenesulfonamide] |
|  | 50 | COc1ccc(CN([C@@H]2CCCCNC2=O)S(=O)(=O)c2ccc(Cl)cc2)c(F)c1F [Example 211, 4-Chloro-N-(2,3-difluoro-4-methoxy-benzyl)-N-((R)-2-oxo-azepan-3-yl)-benzenesulfonamide] |
|  | 210 | CC(C)(CC(=O)O)c1ccc(CN([C@@H]2CCCCNC2=O)S(=O)(=O)c2ccc(Cl)cc2)cc1 [Example 218, 3-(4-{[(4-Chloro-benzenesulfonyl)-((R)-2-oxo-azepan-3-yl)-amino]-methyl}-phenyl)-3-methyl-butyric acid] |
|  | 230 | CC(C)(Cc1ccc(CN([C@@H]2CCCCNC2=O)S(=O)(=O)c2ccc(Cl)cc2)cc1)C(=O)O [Example 219, 3-(4-{[(4-Chloro-benzenesulfonyl)-((R)-2-oxo-azepan-3-yl)-amino]-methyl}-phenyl)-2,2-dimethyl-propionic acid] |
